{
  "source": "patent US8288371B2",
  "about": "“Ortho pyrrolidine, benzyl-substituted heterocycle CCR1 antagonists for autoimmune diseases and inflammation” (Pharmacopeia, LLC, priority 2007, dated 2012)",
  "data": [
    {"molecular_target": "T1, human CCR1 (Homo sapiens, UniProt P32246)", "T1 sequence (P32246 1-355)": "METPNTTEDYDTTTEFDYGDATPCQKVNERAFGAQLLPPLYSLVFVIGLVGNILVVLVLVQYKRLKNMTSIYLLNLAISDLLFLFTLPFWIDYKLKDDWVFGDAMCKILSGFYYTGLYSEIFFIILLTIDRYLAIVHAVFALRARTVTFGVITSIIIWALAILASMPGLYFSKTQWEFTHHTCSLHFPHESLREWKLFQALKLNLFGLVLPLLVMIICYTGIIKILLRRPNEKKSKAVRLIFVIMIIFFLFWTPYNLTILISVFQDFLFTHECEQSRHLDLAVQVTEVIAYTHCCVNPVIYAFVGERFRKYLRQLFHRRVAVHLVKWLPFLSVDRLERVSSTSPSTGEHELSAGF", "assay": "CCR1 binding protocol (SPA, [125I]-MIP-1α displacement)", "settings": "cell membrane expressing human CCR1, 0.1 nM [125I]-MIP-1α, 4 hours at ambient temperature; read-out: Relative potency (IC50)", "description": "The following protocol was used to test compounds for CCR1 binding. A mixture, including scintillation proximity assay (SPA) beads and cell membrane expressing human CCR1, was prepared in assay buffer (130 mM NaCl+5 mM KCl+1 mM MnCl+50 mM Tris HCl at pH 7.4+0.1% bovine serum albumin (BSA)) at the ratio of 50 μg/ml membrane to 10 mg/ml SPA beads. 10 μl of the mixture was transferred to each well of a 384-well assay plate yielding a final concentration for the membrane and SPA beads of 0.5 μg/well and 100 μg/well, respectively\nTo generate different concentrations of the test compound, compound stocks were prepared using 10 step ½ log dilutions with a high concentration of 10 mM in DMSO and the lowest concentration being DMSO only without compound. An intermediate 40× dilution was then prepared in the assay buffer. The compound was then transferred at 10 μl/well to the assay plate. 0.5 nM [^125 I]-labeled macrophage inflammatory protein-1α (MIP-1α, an endogenous CCR1 ligand) in the assay buffer was transferred to the assay plate at 5 μl/well, for a final ligand concentration of 0.1 nM. The assay plate was then centrifuged at 2500 rpm for 2 minutes and incubated for 4 hours at ambient temperature, at which time the raw data was recorded using microbeta. The IC50 was then calculated using Graphpad Prism.", "units": {"IC50": "nM"}, "values": [
      {"compound": "Cc1noc(-c2ccccc2)c1NC(=O)N1CCC[C@@H]1c1nnc(C)n1Cc1ccc(Cl)cc1", "note": "[Compound 123]", "IC50": "< 50"},
      {"compound": "Cc1nnc([C@H]2CCCN2C(=O)N[C@@H](C)c2cccnc2)n1Cc1ccc(Cl)cc1", "note": "[Compound 124]", "IC50": "< 50"},
      {"compound": "CC[C@H](NC(=O)N1CCC[C@@H]1c1nnc(C)n1Cc1ccc(Cl)cc1)c1ccc(C(F)(F)F)cc1", "note": "[Compound 125]", "IC50": "< 50"},
      {"compound": "Cc1onc(-c2ccccc2)c1NC(=O)N1CCC[C@@H]1c1nnc(C)n1Cc1ccc(Cl)cc1", "note": "[Compound 126]", "IC50": "< 50"},
      {"compound": "Cc1nnc([C@H]2CCCN2C(=O)N[C@H]2CCc3cc(Cl)ccc32)n1Cc1ccc(Cl)cc1", "note": "[Compound 127]", "IC50": "< 50"},
      {"compound": "Cc1nnc([C@H]2CCCN2C(=O)NC(c2ccccc2)c2ccccc2)n1Cc1ccc(Cl)cc1", "note": "[Compound 128]", "IC50": "< 50"},
      {"compound": "Cc1nnc([C@H]2CCCN2C(=O)NC(c2ccccc2)c2ccc(Cl)cc2)n1Cc1ccc(Cl)cc1", "note": "(stereo partly drawn) [Compound 129]", "IC50": "< 50"},
      {"compound": "Cc1nnc([C@H]2CCCN2C(=O)NCc2ccc(C(F)(F)F)cc2)n1Cc1ccc(Cl)cc1", "note": "[Compound 130]", "IC50": "< 50"},
      {"compound": "Cc1nnc([C@H]2CCCN2C(=O)N[C@@H](C)c2ccc3ccccc3c2)n1Cc1ccc(Cl)cc1", "note": "[Compound 131]", "IC50": "< 50"},
      {"compound": "Cc1nnc([C@H]2CCCN2C(=O)NC2CCc3cc(Cl)ccc32)n1Cc1ccc(Cl)cc1", "note": "(stereo partly drawn) [Compound 132]", "IC50": "< 50"},
      {"compound": "Cc1nnc([C@H]2CCCN2C(=O)Nc2ccc(C(C)(C)C)cc2)n1Cc1ccc(Cl)cc1", "note": "[Compound 133]", "IC50": "< 50"},
      {"compound": "Cc1nnc([C@H]2CCCN2C(=O)NC2CCOc3cc(C#N)ccc32)n1Cc1ccc(Cl)cc1", "note": "(stereo partly drawn) [Compound 134]", "IC50": "< 50"},
      {"compound": "Cc1nnc([C@H]2CCCN2C(=O)Nc2ccc3ccccc3c2)n1Cc1ccc(Cl)cc1", "note": "[Compound 135]", "IC50": "< 50"},
      {"compound": "Cc1nnc([C@H]2CCCN2C(=O)Nc2ccc(OC(F)(F)F)cc2)n1Cc1ccc(Cl)cc1", "note": "[Compound 136]", "IC50": "< 50"},
      {"compound": "Cc1nnc([C@H]2CCCN2C(=O)Nc2ccc3c(c2)N(C)C(=O)CO3)n1Cc1ccc(Cl)cc1", "note": "[Compound 137]", "IC50": "50 to 500"},
      {"compound": "Cc1nnc([C@H]2CCCN2C(=O)N[C@H]2COCc3c(F)cccc32)n1Cc1ccc(Cl)cc1", "note": "[Compound 138]", "IC50": "50 to 500"},
      {"compound": "Cc1nnc([C@H]2CCCN2C(=O)NC(C)c2cccnc2)n1Cc1ccc(Cl)cc1", "note": "(stereo partly drawn) [Compound 139]", "IC50": "50 to 500"},
      {"compound": "Cc1nnc([C@H]2CCCN2C(=O)N[C@H](C)c2cccnc2)n1Cc1ccc(Cl)cc1", "note": "[Compound 140]", "IC50": "50 to 500"},
      {"compound": "Cc1nnc([C@H]2CCCN2C(=O)N[C@@H]2COCc3c(F)cccc32)n1Cc1ccc(Cl)cc1", "note": "[Compound 141]", "IC50": "50 to 500"},
      {"compound": "Cc1nnc([C@H]2CCCN2C(=O)NC2COCc3c(F)cccc32)n1Cc1ccc(Cl)cc1", "note": "(stereo partly drawn) [Compound 142]", "IC50": "50 to 500"},
      {"compound": "Cc1nnc([C@H]2CCCN2C(=O)N[C@@H]2CCc3cc(Cl)ccc32)n1Cc1ccc(Cl)cc1", "note": "[Compound 143]", "IC50": "50 to 500"},
      {"compound": "Cc1nnc([C@H]2CCCN2C(=O)Nc2ccc(Cl)cc2F)n1Cc1ccc(Cl)cc1", "note": "[Compound 144]", "IC50": "< 50"},
      {"compound": "Cc1nnc([C@H]2CCCN2C(=O)NCc2cccc(C(F)(F)F)c2)n1Cc1ccc(Cl)cc1", "note": "[Compound 145]", "IC50": "50 to 500"},
      {"compound": "Cc1nnc([C@H]2CCCN2C(=O)Nc2ccccc2C(F)(F)F)n1Cc1ccc(Cl)cc1", "note": "[Compound 146]", "IC50": "50 to 500"},
      {"compound": "Cc1nnc([C@H]2CCCN2C(=O)N[C@@H]2CCCOc3ccc(Cl)cc32)n1Cc1ccc(Cl)cc1", "note": "[Compound 147]", "IC50": "< 50"},
      {"compound": "O=C(N[C@@H]1CCCOc2ccc(Cl)cc21)N1CCC[C@@H]1c1nncn1Cc1ccc(Cl)cc1", "note": "[Compound 148]", "IC50": "50 to 500"},
      {"compound": "Cc1nnc([C@H]2CCCN2C(=O)N[C@H]2CCOc3c(F)cccc32)n1Cc1ccc(Cl)cc1", "note": "[Compound 149]", "IC50": "< 50"},
      {"compound": "Cc1cc(C)c(NC(=O)N2CCC[C@@H]2c2nnc(C)n2Cc2ccc(Cl)cc2)c(C)c1", "note": "[Compound 150]", "IC50": "< 50"},
      {"compound": "Cc1cccc(Cl)c1NC(=O)N1CCC[C@@H]1c1nnc(C)n1Cc1ccc(Cl)cc1", "note": "[Compound 151]", "IC50": "< 50"},
      {"compound": "Cc1nnc([C@H]2CCCN2C(=O)N[C@H]2CCOc3cc(F)ccc32)n1Cc1ccc(Cl)cc1", "note": "[Compound 152]", "IC50": "< 50"}
    ]}
  ]
}
